Marks after values point to notes of the source that are not given here.
Experiment: Plasma pharmacokinetics, Arm II (oral BID), phase 1 trial
Type: in vivo, human
Procedure: Pharmacokinetics of ilorasertib were evaluated in the dose-escalation cohort on blood samples that were collected on cycle 1 days 1 and 15. Parameters determined: Cmax, time to Cmax (Tmax), terminal phase elimination half-life (t1/2), clearance, apparent oral clearance (CL/F), and area under the plasma concentration-time curve from time 0 to time of last measurable concentration (AUCt) and from time 0 to infinity (AUC∞). For Arm I, blood samples were collected prior to dosing and at 0.5, 1, 2, 3, 4, 6, 8, 10 or 12, and 24 h after dosing on cycle 1 days 1 and 15; of note, for institutions not able to collect the 10- or 12-h post-dose sample, the 24-h sample was replaced with 22-h and 28-h post-dose samples. In Arm II, for the first dose, blood samples were collected pre-dose and at 1, 2, 3, and 4 h post-dose on cycle 1 days 1 and 15; for the second dose, samples were collected pre-dose and at 1, 2, 3, 4, 18, and 24 h after second dose on cycle 1 days 1 and 15. In Arm III, blood samples were collected prior to infusion, at 1 h 55 min (just before end of infusion), and at 0.5, 1, 2, 4, 6, 8, 10, and 24 h after end of infusion on cycle 1 days 1 and 15; here also, for institutions not able to collect the 8-h or 10-h after-end-of-infusion samples, the 24-h sample was replaced with 22-h and 28-h post-dose samples. The liquid chromatography (LC)-mass spectrometry (MS)/MS method was developed and validated in the Bioanalysis Department of AbbVie. Fifty microliter of human plasma (K2EDTA as anticoagulant) was fortified with 300 μL of deuterium-stable labelled internal standard and mixed well. A HybridSPE precipitation plate (50 mg/96 wells, Supelco Analytical, Munich, Germany) was used to directly load and elute (under slight vacuum) the fortified samples into a clean collection plate. Samples were dried before reconstitution with 100 μL of 20/80 (v/v) acetonitrile/water, and injected for LC-MS/MS analysis. A Halo C8 (Wilmington, DE, USA; 2.7 μm, 2.1 × 30 mm) was used on an Agilent 1290 Infinity UPLC pump (Agilent Technologies, Santa Clara, CA) to carry out the separation. An isocratic condition with 25/75/0.1 (v/v/v) acetonitrile/water/98% formic acid was used as the mobile phase. The flow rate was set to be 0.6 mL/min. An MPS 3 C ([…] Ruhr, Germany) autosampler was used to introduce samples onto the UPLC system. An API 4000 mass spectrometer (Applied Biosystems, Foster City, CA) was used in the multiple reactions monitoring mode for the detection and quantitation of analyte. Descriptive statistics were used for demographic variables. The numbers and percentages of patients with treatment-emergent AEs (TEAEs) were tabulated using the Medical Dictionary for Regulatory Activities version 16.0 system organ class and preferred term, and further classified according to CTCAE version 4.0 criteria. The safety data set included all patients who received one or more doses of ilorasertib. The pharmacokinetic data set included all patients who received one or more doses of ilorasertib and had one or more pharmacokinetic samples. Values for pharmacokinetic parameters were determined using non-compartmental methods, with data analysed separately for each arm. A repeated measures analysis was performed for Tmax and dose-normalised Cmax, AUCt, and AUC∞. The model included random effects for patient and fixed effects for dose level, day, and the interaction of dose level and day. To assess effects of exposure on pharmacodynamic biomarkers, Cmax was employed as the directly measured marker of exposure for the rapid changes in DBP and PlGF pre-steady-state, while AUC∞ reflected exposure variability at the time of post-multiple-dose skin biopsy. Descriptive statistics were used to summarise ECOG performance status. The efficacy data set included all patients who received one or more doses of ilorasertib.

[1] = Arm II PO BID 40 mg, day 1, N=2, mean (individual)
[2] = Arm II PO BID 40 mg, day 15, N=3
[3] = Arm II PO BID 60 mg, day 1, N=3
[4] = Arm II PO BID 60 mg, day 15, N=1
[5] = Arm II PO BID 60 mg, day 15, N=3
[6] = Arm II PO BID 90 mg, day 1, N=2, mean (individual)
[7] = Arm II PO BID 90 mg, day 1, N=3
[8] = Arm II PO BID 90 mg, day 15, N=2, mean (individual)
[9] = Arm II PO BID 90 mg, day 15, N=3
[10] = Arm II PO BID 130 mg, day 1, N=3
[11] = Arm II PO BID 130 mg, day 1, N=4
[12] = Arm II PO BID 130 mg, day 15, N=1
[13] = Arm II PO BID 130 mg, day 15, N=3
[14] = Arm II PO BID 190 mg, day 1, N=4
[15] = Arm II PO BID 190 mg, day 1, N=7
[16] = Arm II PO BID 190 mg, day 15, N=2, mean (individual)
[17] = Arm II PO BID 190 mg, day 15, N=5
[18] = Arm II PO BID 230 mg, day 1, N=2, mean (individual)
[19] = Arm II PO BID 230 mg, day 1, N=3
[20] = Arm II PO BID 230 mg, day 15, N=1
[21] = Arm II PO BID 230 mg, day 15, N=4
[22] = Arm II PO BID 340 mg, day 1, N=1
[23] = Arm II PO BID 340 mg, day 1, N=3
[24] = Arm II PO BID 340 mg, day 15, N=1
[25] = Arm II PO BID all doses, day 1, N=14
[26] = Arm II PO BID all doses, day 1, N=26
[27] = Arm II PO BID all doses, day 15, N=7
[28] = Arm II PO BID all doses, day 15, N=22

In the case of `Nc1ncc(-c2cnn(CCO)c2)c2scc(-c3ccc(NC(=O)Nc4cccc(F)c4)cc3)c12` [ilorasertib, Ilorasertib], the “AUC∞/dose” value [1] is reported as 49.9 (35.6, 64.1)^b ng•h/mL/mg, the CL/F [1] is reported as 21.8 (28.1, 15.6)^b L/h and the AUCt/dose (Arm II PO BID 40 mg, day 1, N=3) is reported as 46.5 ± 20.5 ng·h/mL/mg. It also gave an AUCt/dose [2] of 46.9 ± 25.6 ng·h/mL/mg, a Cmax/dose [2] of 2.4 ± 1.3 ng/mL/mg and an AUCt/dose [3] of 45.4 ± 12.2 ng·h/mL/mg. For the same molecule, the Cmax/dose [3] was 3.2 ± 1.2 ng/mL/mg, the “AUC∞/dose” value [4] was 45.3^b ng•h/mL/mg and the CL/F [4] was 22.1^b L/h. The AUCt/dose [5] was 24.3 ± 5.9 ng·h/mL/mg, the Cmax/dose [5] was 1.9 ± 0.47 ng/mL/mg and the “AUC∞/dose” value [6] was 22.4 (14.1, 30.6)^b ng•h/mL/mg. The CL/F [6] was 51.7 (70.7, 32.6)^b L/h, the AUCt/dose [7] was 21.8 ± 8.5 ng·h/mL/mg and the Cmax [7] was 300 ± 100 ng/mL. The Cmax/dose [7] was 1.7 ± 0.6 ng/mL/mg, the “AUC∞/dose” value [8] was 29.6 (41.1, 18.1)^c ng•h/mL/mg and the CL/F [8] was 39.8 (24.3, 55.2)^c L/h. For the same molecule, the “t1/2 (harmonic mean)” value [8] was 16.2 (23.4, 12.4)^c h, the AUCt/dose [9] was 22.5 ± 8.4 ng·h/mL/mg and the Cmax/dose [9] was 1.8 ± 0.54 ng/mL/mg. The “AUC∞/dose” value [10] was 25.1 ± 17.2^c ng•h/mL/mg, the CL/F [10] was 51.5 ± 25.9^c L/h and the AUCt/dose [11] was 19.5 ± 12.2 ng·h/mL/mg. The Cmax/dose [11] was 2.3 ± 1.5 ng/mL/mg, the “AUC∞/dose” value [12] was 15.2^b ng•h/mL/mg and the CL/F [12] was 65.7^b L/h. For the same molecule, the AUCt/dose [13] was 9.2 ± 5.0 ng·h/mL/mg, the Cmax/dose [13] was 1.0 ± 1.1 ng/mL/mg and the “AUC∞/dose” value [14] was 46.8 ± 29.7^d ng•h/mL/mg. The CL/F [14] was 29.6 ± 17.9^d L/h, the “t1/2 (harmonic mean)” value [14] was 13.7 ± 9.0^d h and the AUCt [15] was 8100 ± 4440 ng·h/mL. The AUCt/dose [15] was 21.3 ± 11.7 ng·h/mL/mg, the Cmax/dose [15] was 1.4 ± 0.8 ng/mL/mg and the “AUC∞/dose” value [16] was 28.0 (20.9, 35.2)^c ng•h/mL/mg. The CL/F [16] was 38.1 (47.8, 28.4)^c L/h, the AUCt/dose [17] was 17.6 ± 13.7 ng·h/mL/mg and the Cmax/dose [17] was 1.7 ± 1.0 ng/mL/mg. The “AUC∞/dose” value [18] was 19.9 (18.1, 21.7)^b ng•h/mL/mg, the CL/F [18] was 50.8 (55.4, 46.1)^b L/h and the AUCt/dose [19] was 21.9 ± 7.9 ng·h/mL/mg. The Cmax/dose [19] was 1.5 ± 0.5 ng/mL/mg, the “AUC∞/dose” value [20] was 28.2^b ng•h/mL/mg and the CL/F [20] was 35.5^b L/h. For the same molecule, the AUCt/dose [21] was 24.4 ± 9.4 ng·h/mL/mg, the Cmax/dose [21] was 1.7 ± 1.0 ng/mL/mg and the “AUC∞/dose” value [22] was 145^e ng•h/mL/mg. The CL/F [22] was 6.9^e L/h, the AUCt/dose [23] was 57.8 ± 21.8 ng·h/mL/mg and the Cmax/dose [23] was 3.0 ± 1.3 ng/mL/mg. The AUCt/dose [24] was 23.0 ng·h/mL/mg, the Cmax/dose [24] was 1.1 ng/mL/mg and the “AUC∞/dose” value [25] was 42.3 ± 36.5^f ng•h/mL/mg. For the same molecule, the CL/F [25] was 37.7 ± 21.8^f L/h, the “t1/2 (harmonic mean)” value [25] was 13.0 ± 6.2^f h and the AUCt/dose [26] was 31.1 ± 18.8 ng·h/mL/mg. For the same molecule, the Cmax/dose [26] was 2.2 ± 1.2 ng/mL/mg, the “AUC∞/dose” value [27] was 29.1 ± 11.7^d ng•h/mL/mg and the CL/F [27] was 39.9 ± 16.7^d L/h. For the same molecule, the “t1/2 (harmonic mean)” value [27] was 9.9 ± 3.7^d h, the AUCt/dose [28] was 23.5 ± 15.5 ng·h/mL/mg and the Cmax/dose [28] was 1.7 ± 0.9 ng/mL/mg.
